Marks after values point to notes of the source that are not given here.
Experiments:
Assay type in all cases: cell-based
[1] = system: transformed human airway epithelial cells (CFT1-LCFSN line); experiment: Inhibition of internalization of P. aeruginosa strain 324 into CFT1-LCFSN cells (bacterial ingestion assay); conditions: strain 324, CFT1-LCFSN cells
Description: (§1) Cell lines. CFT1-LCFSN cells, carrying a retrovirally introduced chromosomal copy of the wild-type human CFTR gene were kindly provided by J. Olsen, J. Yankaskis and L. Johnson from The University of North Carolina, Chapel Hill, N.C.. The cell line parental to CFT1-LCFSN is designated CFT1; it is a line of human papilloma virus 18 E6/E7 transformed bronchial epithelial cells derived from a CF patient homozygous for ΔF508 CFTR. The CFT1-LCFSN cells have normal chloride ion conductance. CFT1-ΔF508 cells are derived from CFT1 cells and carry a cDNA introduced by a retrovirus vector that encodes the ΔF508 mutant form of CFTR. Cells were grown in supplemented F-12 medium as described in 5% CO2 at 37° C.
(§2) Bacterial strains. P. aeruginosa strains used include PAO1, a well-characterized laboratory strain, and strains 149 and 324, non-mucoid, LPS-smooth clinical isolates of P. aeruginosa from CF patients early in the course of infection. Fresh cultures of P. aeruginosa grown overnight at 37° C. on a tryptic soy agar plate were suspended in supplemented medium to prepare the bacterial inoculum. Approximately 10^6 cfu of the bacterial inoculum were added per well of 10^5, epithelial cells.
(§3) Reagents for inhibition of ingestion assays. Membranes were prepared from C127 cells as described by O'Riordan et al.. Membranes were suspended in 150 mM NaCl, 50 mM Tris, pH 7.5 and 1 mM EDTA and added at the indicated concentration to suspensions of P. aeruginosa strains prior to adding this mixture to CFT1-LCFSN cells to measure bacterial uptake. Membranes from CEM/VbI cells expressing P-glycoprotein and membranes from control CEM cells lacking P-glycoprotein were obtained from James Croop of Harvard Medical School. Purified (˜85%) recombinant CFTR was obtained from Genzyme Corp., and prepared as described. The protein was solubilized in 100 mM NaCl, 10 mM Tris, pH 8.0, 2 mM di-thio-threitol and 0.1% sodium dodecyl sulfate. Monoclonal antibodies raised to synthetic peptides corresponding to the first (MAb CF3) and fourth (MAb CF4) predicted extracellular domains of CFTR, as well as a MAb specific to a peptide representing the carboxy-terminal 14 amino acids of mature CFTR (MAb CF2) were provided by Dr. George Banting, University of Bristol, Bristol, UK [12]. Synthetic peptides were obtained from Chiron Mimetopes, San Diego, Calif. Peptide GRIIASYDPDNKEER (15 amino acids) (SEQ.ID.NO. 3) represents amino acids 103-117 of mature CFTR, peptide […] (31 amino acids) (SEQ.ID.NO. 4) represents amino acids 881-911 of mature CFTR. Peptides were made up as a stock solution in F-12 medium containing 1 μM/μl based on the purity reported by the manufacturer. Peptides were diluted in F-12 tissue culture medium prior to use in assays.
(§4) Bacterial ingestion assay. Cells were released from monolayers in tissue culture flasks by 5 min. of incubation with trypsin-versene mixture (BioWhitaker, Walkersville, Md.), washed, counted and seeded into 96-well tissue culture plates at 10^5 cells/well in supplemented F-12 medium and incubated at 37° C. in 5% CO2. Fresh cultures of P. aeruginosa grown overnight at 37° C. on a tryptic soy agar plate were suspended in supplemented F-12 medium to prepare the bacterial inoculum. Then 10^6 colony forming units (cfu) of the bacterial inoculum were added per well of 10^5 epithelial cells. Bacteria were allowed to invade the epithelial cells for 3 to 4 hours at 37° C., after which nonadherent bacteria were removed by washing. The remaining steps of the assay and the steps involved in the controls have previously been described. Three to 9 replicates were obtained per point, and analyzed using analysis of variance (ANOVA) and the Fisher PLSD statistic to determine pairwise differences. […]

[2] = system: transformed human airway epithelial cells (CFT1-LCFSN line); experiment: Inhibition of internalization of P. aeruginosa strain PAO1 into CFT1-LCFSN cells (bacterial ingestion assay); conditions: strain PAO1, CFT1-LCFSN cells
Description: as §1, §2
as §3, with “GRIIASYDPDNKEER” left out
as §4

[3] = system: transformed human airway epithelial cells (CFT1-LCFSN line); experiment: Inhibition of internalization of P. aeruginosa strain 149 into CFT1-LCFSN cells (bacterial ingestion assay); conditions: strain 149, CFT1-LCFSN cells
Description: as §1, §2, §3, §4

Sequence | Mean cfu of P. aeruginosa internalized (standard deviation) ([1]; 0.001 nanomoles peptide) | Mean cfu of P. aeruginosa internalized (standard deviation) ([1]; 0.01 nanomoles peptide) | Mean cfu of P. aeruginosa internalized (standard deviation) ([1]; 0.1 nanomoles peptide) | Mean cfu of P. aeruginosa internalized (standard deviation) ([1]; 1 nanomoles peptide) | Mean cfu of P. aeruginosa internalized (standard deviation) ([2]; 0.001 nanomoles peptide) | Mean cfu of P. aeruginosa internalized (standard deviation) ([2]; 0.01 nanomoles peptide) | Mean cfu of P. aeruginosa internalized (standard deviation) ([2]; 0.1 nanomoles peptide) | Mean cfu of P. aeruginosa internalized (standard deviation) ([2]; 1 nanomoles peptide) | Mean cfu of P. aeruginosa internalized (standard deviation) ([3]; 0.001 nanomoles peptide) | Mean cfu of P. aeruginosa internalized (standard deviation) ([3]; 0.01 nanomoles peptide) | Mean cfu of P. aeruginosa internalized (standard deviation) ([3]; 0.1 nanomoles peptide) | Mean cfu of P. aeruginosa internalized (standard deviation) ([3]; 1 nanomoles peptide)
GRIIASYDPDNKEER (listed as Homo Sapiens) [First domain] | 1.3938 × 10^5 (7.6735 × 10^3) cfu | 1.405 × 10^5 (9.4323 × 10^3) cfu | 7.232 × 10^4 (5.6982 × 10^3)^a cfu | 1.462 × 10^4 (2.6955 × 10^3)^a cfu | 5.533 × 10^4 (5.2986 × 10^3) cfu | 3.482 × 10^4 (3.8473 × 10^3)^a cfu | 2.513 × 10^4 (1.6609 × 10^3)^a cfu | 2.383 × 10^4 (4.6207 × 10^3)^a cfu | 5.73 × 10^4 (4.006 × 10^3) cfu | 1.705 × 10^4 (2.1333 × 10^3)^a cfu | 7.0167 × 10^3 (8.542 × 10^2)^a cfu | 3.7833 × 10^3 (4.491 × 10^2)^a cfu
LWLLGNTPLQDKGNSTHSRNNSYAVIITSTS (listed as Homo Sapiens) [Fourth domain, reference compound] | 1.3275 × 10^5 (9.408 × 10^3) cfu | 1.412 × 10^5 (7.1986 × 10^3) cfu | 1.416 × 10^5 (1.195 × 10^4) cfu | 1.42 × 10^5 (1.746 × 10^4) cfu | 6.978 × 10^4 (5.4745 × 10^3) cfu | 7.23 × 10^4 (3.6721 × 10^3) cfu | 7.488 × 10^4 (5.0653 × 10^3) cfu | 8.708 × 10^4 (4.0519 × 10^3) cfu | 4.752 × 10^4 (5.9915 × 10^3) cfu | 4.86 × 10^4 (4.6463 × 10^3) cfu | 5.528 × 10^4 (6.0598 × 10^3) cfu | 5.735 × 10^4 (4.0009 × 10^3) cfu
